Assay results published in patent US6593365B1, “Diflunisal esters and related compounds” (The University of Queensland, priority 1997, dated 2003).
Like-named read-outs stand apart in the source and are kept apart here. Marks after values point to notes of the source that are not given here.

Key:
[1] = Intrinsic (maximum) solubility in water at pH 1.5; assay type: physicochemical; conditions: water at pH 1.5, 25 1° C.; U = Undetectable
Experimental: The pH conditions were chosen to ensure that the solubility of the unionised species was estimated. […] Lea & Febiger/Philadelphia. […] […] The solvent (9.9 mL) was then added to the test tube. […] The test tube was sonicated for 15 minutes and centrifuged for 10 minutes (3000 g at 25° C.). An aliquot was filtered (Minisart 0.45 μm filter, Satorius) and diluted with HPLC mobile phase, then assayed. The tube was stored carefully in a 25° C. water bath after sampling and the remaining suspension was again sonicated and the process repeated 7 times at four hourly intervals. In these assays, standard curves were prepared by directly dissolving the esters in mobile phase. Concentrations for standard curves ranged from 1-50 μg/mL for all compounds. Furthermore, a manual injector (Waters Model U6K) was used (20 μL sample loop) which ensured that 20 μL was consistently injected onto the column and precluded the need for an internal standard.

[2] = system: human platelet rich plasma; experiment: Platelet aggregation induced by arachidonic acid; assay type: cell-based; conditions: compound 600 µM, 37° C., arachidonic acid 200 µM
Experimental: Platelet aggregation studies were carried out using a single channel Lumiaggregometer (Chrono-Log Company, Haverton, Pa.) at 37° C. using human platelet-rich and platelet-poor plasma. Platelet-rich plasma (PRP) with a platelet concentration of […] (measured with a Coulter counter) was prepared by centrifuging 3.8% citrated […] (1:9) at 1,500 rpm using a (Beckman) benchtop centrifuge at room temperature for 15 minutes. Platelet-poor plasma (PPP) was prepared by further centrifuging residual blood from platelet-rich plasma at 3,000 rpm for 30 minutes. Platelet-poor plasma was also confirmed b y Coulter counting for platelet content.
Platelet aggregation studies were preceded by pipetting 0.4 mL platelet-rich plasma into a stirred aggregometer tube and calibrate to 90% of recorder. Platelet-poor plasma was set to calibrate at 10% of recorder. Platelet aggregation was initiated by the addition of a arachidonic acid (Sigma) or ADP (Sigma).
10 mM solutions of each compound (TABLE 6) were prepared in 1 mL of normal saline solution (containing 4% BSA) before use. An aliquot (400 μL) of platelet-rich plasma was pipetted into a stirred aggregometer tube at 37° C. and 30 μL of test sample added simultaneously. This mixture was preincubated for varying period (3 to 45 minutes), then arachidonic acid (AA) was added (final conc.=200 μM) to initiate platelet aggregation. If no aggregation occurred, 20 μM ADP was added to confirm the vitality of the platelets (if the platelets are vital, ADP will induce this AA-test sample-plasma mixture to aggregate). This procedure is necessary to investigate whether the non-aggregation phenomenon is due to drug inhibition or simply due to inviable platelets (unable to respond to AA). The degree of aggregation was measure by calculating the area under the turbidimetric response curve (AUC).

[3] = Maximum solubility in 2% BSA Krebs-Henseleit buffer (pH 7.4); assay type: physicochemical; conditions: 25 1° C.
Text: The intrinsic solubility of diflunisal esters is extremely low (TABLE 2). The more lipophilic the analogue, the higher the solubility of solute under these conditions.

[4] = In vitro non-enzymatic hydrolysis in Krebs-Henseleit buffer; assay type: physicochemical; conditions: pH 7.4, 25° C., n=5
Experimental: These experiments were carried out both in Krebs-Henseleit buffer containing either no protein or 2% w/v BSA (bovine serum albumin, fraction V, Sigma) at pH 7.4 and 25±1° C.
Solutions of the derivatives in Krebs buffer (10 mL) was prepared in siliconised glass tubes. Each solution was sonicated for 5 minutes and centrifuged for 5 minutes (3000 g) at 25° C. to ensure maximum dissolution and to sediment any undissolved precipitate. About 7.5 mL of the supernatant was then transferred to a clean siliconised test tube and a 100 μL aliquot was removed and assayed. […] The rate of non-enzymatic hydrolysis (k) for each derivative was then estimated using the following equation: […]
where C1 is the concentration of the ester at any time (t), and C0 is the concentration of the ester at time zero. The half-life (t½) was determined using the formula: […]

[5] = system: ischaemic/reperfusion rat livers; experiment: Ischaemic/reperfusion injury in rat livers (LDH release, bile production); design: species or system Female Sprague-Dawley rats; conditions: Rattus norvegicus
Experimental: Female Sprague-Dawley rats (220-250 g) were anaesthetised by interperitoneal injection of pentobarbital sodium (60 mg/kg, Boehringer Ingelhein). […] The bile duct was cannulated with a polyethylene tubing (PE-10, I.D. 0.28 mm; Clay Adams, New Jersey) and bile was collected into pre-weighed microcentrifuge tubes at 70 min intervals (in the middle of experiment and the end of experiment). The portal vein was then cannulated using a 16 G intravenous catheter and the liver was perfused via this cannula with 2% BSA Krebs-Henseleit bicarbonate buffer (pH 7.4) and oxygenated using a membrane oxygenator comprising of silastic tubing and ventilated with carbogen (95% O2/5% CO2). The perfusion system used was recirculating and employed a peristaltic pump (Cole-Parmer, Illinois).
Following a 10 min pre-ischaemia perfusion, the perfusion flow was stopped for 30 min at 37° C. with the liver being kept moist. At the end of this ischaemic phase, a known concentration of the aspirin analogue or diflunisal ester's solution (in 2% BSA Krebs-Henseleit buffer) was added into the perfusate prior to the perfusion being resumed for another 100 min. Outflow fractions were collected up to 140 min. A biochemistry autoanalyzer (Hitachi, model 747; Tokyo, Japan) was employed to determine the level of enzyme (LDH) release.
The degree of ischaemic/reperfusion injury was measured by calculating the area under the LDH release ([…]) versus time curve (AUC). […] The efficacy of each compound is expressed in terms of ED50 which represents the molar dose for 50% reduction of LDH release compared to the control. The comparison of bile production between the first stage of experiment (the first 70 min) and the second stage of experiment (the last 70 min) is also used as index of liver function during an experiment.

[6] = system: superoxide generated from xanthine oxidase plus xanthine reaction; experiment: Xanthine oxidase plus xanthine-induced chemiluminescence; assay type: biochemical; design: dose or concentration left out as unconfirmed; conditions: X: CL induced by xanthine oxidase plus xanthine
Experimental: To clarify the role of aspirin analogues and diflunisal esters in free radicals scavenging, the Fenton's reagent was replaced by an artificial superoxide generating system in the CL inhibition studies. This cell-free system consisted of 100 μg/mL of xanthine oxidase (Sigma) plus 0.5 μM xanthine (Sigma) (Rosen and Klebanoff, 1976, J Clin Invest 58 50-60; Cheson et al., 1976, J Clin Invest 58 789-796).
(§1) CL measurements were always done in triplicate and Student's t-test used to assess the statistical significance of the difference between measurements.

[7] = system: OH. generated from Fenton's reaction; experiment: Luminol-dependent chemiluminescence induced by Fenton's reagent; assay type: biochemical; design: unit of the concentration uncertain; conditions: F: CL induced by Fenton's reagent, n=3
Experimental: CL was measured with a luminometer (Model 1250; LKB Wallac, Finland) and recorded in millivolts (Cheung et al., 1984, supra).
Fenton's reagent (FeSO4 and H2O2) was used as a standard reaction mixture for the generation of OH. (Lai and Piette, 1979, Tetrahedron Lett. 775-778):
Fe^+++H2O2→Fe^++++OH.+OH (1)
The initial reaction mixture consisted of 20 μL of 3.8 mM FeSO4.7H2O, 20 μL of 5 mg/mL luminol (Sigma), and 2 mL of 1 mM phosphate buffer in a 3 mL polystyrene cuvette. Twenty microlitres of 320 mM H2O2 was added to initiate the Fenton's reaction.
A known concentration of the ethanolic (≲1%) aspirin analogue or diflunisal ester's stock solution was added to the 1 mM phosphate buffer to prepare solutions with a final concentration of 50 μM, 250 μM or 500 μM. Twenty microlitres of these test samples was added onto the cuvette which contained the initial reaction mixture. H2O2 was added to induce CL reaction. The luminol-dependent CL response was recorded in mV by a potentiometric recorder.
as §1

[8] = system: in-situ perfused rat liver; experiment: In-situ rat liver perfusions, hepatic extraction (Example 4); assay type: in vitro ADME; conditions: protein-free Krebs-Henseleit buffer as perfusate; hepatic extraction=1- hepatic availability (F)
Experimental: The hepatic availability (F) for the O-acyl esters of SA and DF was determined using a once through in-situ perfused rat liver preparation (Mellick and Roberts, 1996, J Pharm Pharmacol 48:738-743). Liver was perfused with protein-free Krebs-Henseleit buffer at 30 mL/min for aspirin analogues and with Krebs-Henseleit buffer containing 2% BSA for diflunisal esters studies. Since the solubilities of the diflunisal esters in protein-free media were very low, 2% BSA were used to help to solubilize these compounds. Briefly, 50 μL of a saturated solution of the particular O-acyl SA or DF in Krebs-Henseleit buffer was injected as a bolus into the portal vein cannula. Perfusate outflow samples have collected via a fraction collector over 3 min. 100 μL of these samples was assayed by HPLC to determine the residual concentration of presented ester and the quantity of phenolic metabolite (SA or DF) collected from the perfused liver. The HPLC assay was a modification of the method used by Owen et al. (1987, J Chrom B Biomed Appl 416 293-302) and Rumble et al. (1981, J Chrom 225 252-260).
The hepatic availability (F) was calculated from the ratio of the area under the first moment curve, i.e., outflow concentration time-time profile to the area under the curve for the salicylate phenolic esters, with the assistance of the Moments Calculator 2.2 program for Macintosh computer developed by Robert Purves (1994, J Pharm Sci 83:202-205).

Structure (SMILES) | Maximum solubility [1] | Platelet Aggregation (% of control) ([2]; preincubation 3 minutes) | Platelet Aggregation (% of control) ([2]; preincubation 5 minutes) | Platelet Aggregation (% of control) ([2]; preincubation 8 minutes) | Platelet Aggregation (% of control) ([2]; preincubation 10 minutes) | Platelet Aggregation (% of control) ([2]; preincubation 12 minutes) | Platelet Aggregation (% of control) ([2]; preincubation 15 minutes) | Platelet Aggregation (% of control) ([2]; preincubation 20 minutes) | Platelet Aggregation (% of control) ([2]; preincubation 25 minutes) | Platelet Aggregation (% of control) ([2]; preincubation 45 minutes) | Maximum solubility [3] | Maximum solubility ([3]; mean standard deviation (n=3)) | Hydrolysis rate constant (k) ([4]; Krebs-Henseleit buffer 0% BSA, U = Undetectable) | Hydrolysis rate constant (k) ([4]; Krebs-Henseleit buffer 2% BSA) | EC50 ([5]; C is the ED50 molar dose, read-out: log 1/C (converted)) | EC50 ([5]; molar dose for 50% reduction of LDH release compared to control, 30 min ischaemia, 100 min reperfusion, read-out: ED50 (the source's name)) | CL inhibition (%) [6] | CL inhibition (%) ([7]; 2.5 (unit uncertain) compound) | CL inhibition (%) ([7]; 5 (unit uncertain) compound) | Hepatic extraction [8]
CCC(=O)Oc1ccc(-c2ccc(F)cc2F)cc1C(=O)O [Compound C3D, n-propionyldiflunisal] | 0.01 mM | 96.5 ± 3.1 % of control | 89.3 ± 0.4 % of control | 67.3 ± 0.1 % of control | 49.7 ± 1.1 % of control | 19.3 ± 0.5 % of control | 0 % of control | 0 % of control | 0 % of control | 0 % of control | 10.29 mM | 3.15 ± 0.02 mg/mL | – | – | – | – | – | – | – | –
CCC(=O)Oc1ccccc1C(=O)O [Compound C3SA, n-propionylsalicylic acid] | 6.3 mM | 0 % of control | 0 % of control | 0 % of control | 0 % of control | 0 % of control | 0 % of control | 0 % of control | 0 % of control | 0 % of control | – | – | 0.0147 ± 0.0025 hour^1 | 0.0102 ± 0.0031 hour^1 | – | – | – | – | – | –
O=C(O)c1ccccc1O [SA, 2-hydroxybenzoic acid, reference compound] | – | – | – | – | – | – | – | – | – | – | – | – | – | – | 72.4 µM | 72.6 µM | 0.2 ± 0.0% | 52.9 ± 2.1% | 99.0 ± 1.0% | 0.05^c
